Key:
Type in all cases: in vivo
[1] = system: apomorphineinduced gnawing behaviour; test: Inhibition of apomorphine-induced gnawing behaviour in the rat; details: oral, approximate ED50, read-out: Anti-apomorphine: approximate oral ED50 value for inhibition of apomorphineinduced gnawing behaviour
From the text: (§1) Standard pharmaceutical tests have been run with mice and rats using compounds of this invention. The instant compounds have been compared with Clebopride hydrochloride, i.e., N-(1-benzylpiperid-4-yl)-2-methoxy-4-amino-5-chlorobenzamide hydrochloride, which is disclosed in co-pending U.S. patent application Ser. No. 558,908 filed Mar. 17, 1975, incorporated herein by reference.
^(b) Approximate oral ED50 value for inhibition of
apomorphineinduced gnawing behaviour in the rat.

food intake (spaghetti) = test: Anorexia: inhibition of food intake (spaghetti) in screening test in the mouse; details: 10 mg kg^-1 p.os.
Experimental: as §1
^(c) Percentage inhibition of food intake (spaghetti) in screening
test at 10 mg kg^-1 p.os. in the mouse.

stomach emptying = test: Stomach emptying in the rat; details: 0.3, 1.0 or 3.0 mg kg^-1 i.p.
From the text: as §1
^(d) Active at 0.3 (+++), 1.0 (++) or 3.0 (+) mg kg^-1 i.p. in
causing significant stomach emptying in the rat.

Compound	ED50 [1] [mg/kg]	Anorexia: percentage inhibition of food intake (spaghetti) (food intake (spaghetti)) [%]	Stomach emptying (stomach emptying)
CCN(C(=O)c1cc(Cl)c(N)cc1OC)C1CCN(Cc2ccccc2)CC1.Cl [R3'=H; R7'=C2H5, N-ethyl-N-(1-benzylpiperid-4-yl)-2-methoxy-4-amino-5-chlorobenzamide hydrochloride]	~300	0	
COc1cc(N)c(Cl)cc1C(=O)NC1CCN(Cc2ccccc2)CC1.Cl [Clebopride hydrochloride, N-(1-benzylpiperid-4-yl)-2-methoxy-4-amino-5-chlorobenzamide hydrochloride, reference compound]	2.5	84	
COc1cc(N)c(Cl)cc1C(=O)NC1CC(C)N(Cc2ccccc2)C(C)C1 (stereo not shown) [R5'=2-Me; R6'=6-Me; R7'=H, N-(1-benzyl-2,6-dimethylpiperid-4-yl)-2-methoxy-4-amino-5-chlorobenzamide]	~100	89	
COc1cc(N)c(Cl)cc1C(=O)N(C)C1CCN(Cc2ccccc2)CC1.Cl [R3'=H; R7'=CH3, N-methyl-N-(1-benzylpiperid-4-yl)-2-methoxy-4-amino-5-chlorobenzamide hydrochloride]	> 300	0	
COc1cc(N)c(Cl)cc1C(=O)N(C)C1CCN(C(C)c2ccccc2)CC1 (stereo not shown) [R3'=CH3; R7'=CH3, N-methyl-N-[1-(1-phenylethyl)piperid-4-yl]-2-methoxy-4-amino-5-chlorobenzamide]	> 300	0	0
COc1cc(N)c(Cl)cc1C(=O)NC1CCN(Cc2ccccc2)CC1C (stereo not shown) [R5'=3-Me; R7'=H, N-(1-benzyl-3-methylpiperid-4-yl)-2-methoxy-4-amino-5-chlorobenzamide]	58	34	

Reference: US4367232A, “Piperidine derivatives” (Fordonal, S.A., priority 1976, dated 1983)
